For orientation: pIC50 means −log10 of the IC50, conventionally taken in molar units.

The values that follow come from ChEMBL document CHEMBL4007419, “Discovery of hyaluronidase inhibitors from natural products and their mechanistic characterization under DMSO-perturbed assay conditions” (Bioorg Med Chem Lett, 2017).

pIC50: −log10 of the molar value. Activity calls are given as the source filed them. No cut-off for these calls is given here.

For experiment [1], the species on record is Homo sapiens. Description: Inhibition of CaCl2 activated hyaluronidase (unknown origin) up to 400 uM using hyaluronic acid as substrate preincubated for 20 mins followed by substrate addition measured after 10 mins in presence of up to 15% DMSO by colorimetric method.
The nature of experiment [2]: Inhibition of hyaluronidase (unknown origin) using hyaluronic acid as substrate preincubated for 20 mins followed by substrate addition measured after 40 mins by colorimetric method. Also noted: species or system Homo sapiens.
Experiment [3] is described as follows: Inhibition of hyaluronidase (unknown origin) using hyaluronic acid as substrate preincubated for 20 mins followed by CaCl2 activation for 20 mins and subsequent substrate addition measured after 10 mins by colorimetric method. Further details: species or system Homo sapiens.
A short description of experiment [4]: Inhibition of CaCl2 activated hyaluronidase (unknown origin) using hyaluronic acid as substrate preincubated for 20 mins followed by substrate addition measured after 10 mins by colorimetric method. Further details: species or system Homo sapiens.
The nature of experiment [5]: Inhibition of CaCl2 activated hyaluronidase (unknown origin) using hyaluronic acid as substrate preincubated for 20 mins followed by substrate addition measured after 10 mins in presence of Triton-X-100 by colorimetric method. Also noted: species or system Homo sapiens.
The species entered for experiment [6] is Homo sapiens. As to the kind of experiment: Ratio of IC50 for CaCl2 activated hyaluronidase (unknown origin) to IC50 for hyaluronidase (unknown origin) using hyaluronic acid as substrate preincubated for 20 mins followed by CaCl2 activation.
A short description of experiment [7]: Inhibition of CaCl2 activated hyaluronidase (unknown origin) using hyaluronic acid as substrate preincubated for 20 mins followed by substrate addition measured after 10 mins in presence of dithiothreitol by colorimetric method. Also noted: species or system Homo sapiens.
The species named for experiment [8] is Homo sapiens. As to the kind of experiment: Inhibition of CaCl2 activated hyaluronidase (unknown origin) up to 3000 uM using hyaluronic acid as substrate preincubated for 20 mins followed by substrate addition measured after 10 mins in presence of up to 21% DMSO by colorimetric method.
The species entered for experiment [9] is Homo sapiens. As to the kind of experiment: Non-competitive inhibition of hyaluronidase (unknown origin) up to 1000 um using hyaluronic acid as substrate preincubated for 20 mins followed by substrate addition measured after 10 mins by Lineweaver-Burk plot analysis.
The species entered for experiment [10] is Homo sapiens. As to the kind of experiment: Inhibition of CaCl2 activated hyaluronidase (unknown origin) up to 4000 uM using hyaluronic acid as substrate preincubated for 20 mins followed by substrate addition measured after 10 mins in presence of up to 20% DMSO by colorimetric method.

For the molecule `CC1(C)CC[C@]2(C(=O)O[C@@H]3O[C@H](CO)[C@@H](O)[C@H](O)[C@H]3O)CC[C@]3(C)C(=CC[C@@H]4[C@@]5(C)CC[C@H](O[C@@H]6O[C@H](C(=O)O)[C@@H](O[C@@H]7O[C@@H](CO)[C@H](O)[C@H]7O)[C@H](O)[C@H]6O)C(C)(C)[C@@H]5CC[C@]43C)[C@@H]2C1`, the inhibition entry in the experiment filed under Homo sapiens [1] is “inactive”. The negative-log IC50 (pIC50) in [2] is 4.62; in [3] it was 4.52; in [4], 4.10; in [5], 3.72. In addition, the Ratio IC50 in the experiment listed under Homo sapiens [6] turned out to be 2.5.
Turning to `Oc1cc(O)c2c(c1)O[C@H](c1ccc(O)c(O)c1)[C@H](O)C2` [(-)-EPICATECHIN], the pIC50 was 3.09 in experiment [2]; 3.16 in [3]; 3.10 in experiment [4]; 3.13 in experiment [5]; 3.09 in experiment [7]. The inhibition result in the experiment filed under Homo sapiens [8] and in the experiment filed under Homo sapiens [9] was “Active” in each case.
Turning to `Oc1cc(O)c2c(c1)O[C@@H](c1ccc(O)c(O)c1)[C@H](O)C2` [(-)-CATECHIN], the pIC50 in [2] was 2.96.
As to `Oc1cc(O)c2c(c1)O[C@H](c1ccc(O)c(O)c1)[C@@H](O)C2`, the inhibition entry in the experiment listed under Homo sapiens [10] is “Active”.
`CC1(C)[C@@H](O[C@H]2O[C@H](C(=O)O)[C@@H](O)[C@H](O)[C@H]2O[C@@H]2O[C@H](C(=O)O)[C@@H](O)[C@H](O)[C@H]2O)CC[C@]2(C)[C@H]3C(=O)C=C4[C@@H]5C[C@@](C)(C(=O)O)CC[C@]5(C)CC[C@@]4(C)[C@]3(C)CC[C@@H]12` [GLYCYRRHIZIN] had a pIC50 in experiment [2] of 5.07.
Consider `O=C(O[C@@H]1Cc2c(O)cc(O)cc2O[C@@H]1c1cc(O)c(O)c(O)c1)c1cc(O)c(O)c(O)c1`, for which the inhibition entry in the experiment filed under Homo sapiens [8] was “Active”.
Molecule `O=C(O)[C@H]1O[C@@H](Oc2cc3oc(-c4ccccc4)cc(=O)c3c(O)c2O)[C@H](O)[C@@H](O)[C@@H]1O` [BAICALIN] had a pIC50 in [2] of 3.30.
The same measure, in the same setting: to `CC1(C)CC[C@]2(C(=O)O[C@@H]3O[C@H](CO)[C@@H](O)[C@H](O)[C@H]3O)CC[C@]3(C)C(=CC[C@@H]4[C@@]5(C)CC[C@H](O[C@@H]6O[C@H](C(=O)O)[C@@H](O)[C@H](O)[C@H]6O[C@@H]6O[C@H](CO)[C@@H](O)[C@H](O)[C@H]6O)C(C)(C)[C@@H]5CC[C@]43C)[C@@H]2C1` [GINSENOSIDE R0] belongs 4.47.
